pIC50: −log10 of the molar value. Some results are limits rather than exact numbers.

T1 sequence (P00533 25-1210): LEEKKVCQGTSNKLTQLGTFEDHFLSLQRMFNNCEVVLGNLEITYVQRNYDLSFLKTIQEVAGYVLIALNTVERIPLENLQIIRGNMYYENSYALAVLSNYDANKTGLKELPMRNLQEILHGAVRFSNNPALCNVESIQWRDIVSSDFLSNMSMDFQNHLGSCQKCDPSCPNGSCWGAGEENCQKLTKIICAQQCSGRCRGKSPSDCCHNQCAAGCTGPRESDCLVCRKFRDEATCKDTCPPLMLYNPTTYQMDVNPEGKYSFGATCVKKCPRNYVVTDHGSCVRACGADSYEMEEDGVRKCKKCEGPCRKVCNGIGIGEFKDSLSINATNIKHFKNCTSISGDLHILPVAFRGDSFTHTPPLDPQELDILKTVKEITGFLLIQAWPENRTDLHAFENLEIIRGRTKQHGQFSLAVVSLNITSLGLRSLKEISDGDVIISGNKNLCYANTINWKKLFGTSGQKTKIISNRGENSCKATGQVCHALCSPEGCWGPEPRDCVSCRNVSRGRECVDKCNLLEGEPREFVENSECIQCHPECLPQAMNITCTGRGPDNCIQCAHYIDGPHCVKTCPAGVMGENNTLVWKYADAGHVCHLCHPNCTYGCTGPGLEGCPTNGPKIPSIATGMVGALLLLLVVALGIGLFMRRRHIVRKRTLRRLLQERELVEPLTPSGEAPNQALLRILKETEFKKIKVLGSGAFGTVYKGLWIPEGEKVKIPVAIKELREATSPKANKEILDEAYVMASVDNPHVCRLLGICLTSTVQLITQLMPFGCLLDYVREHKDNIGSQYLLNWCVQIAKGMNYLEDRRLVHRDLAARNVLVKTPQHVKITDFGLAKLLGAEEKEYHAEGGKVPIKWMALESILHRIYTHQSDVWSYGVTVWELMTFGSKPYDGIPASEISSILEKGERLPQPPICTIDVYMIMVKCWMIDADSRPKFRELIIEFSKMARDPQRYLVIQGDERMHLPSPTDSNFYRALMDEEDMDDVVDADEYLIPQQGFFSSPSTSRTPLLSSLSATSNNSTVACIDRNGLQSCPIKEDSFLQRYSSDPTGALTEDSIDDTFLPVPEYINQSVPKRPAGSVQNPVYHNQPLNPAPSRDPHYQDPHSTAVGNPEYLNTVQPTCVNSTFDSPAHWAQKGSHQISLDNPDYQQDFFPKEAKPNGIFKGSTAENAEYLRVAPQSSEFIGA

This assay has as its target T1, receptor tyrosine kinase EGFR (Homo sapiens, UniProt P00533).
T1 construct: purchased Shanghai 3bio Technology Co., Ltd. Lot No. 4018780925
Kind of assay: Inhibitory effect on receptor tyrosine kinase EGFR (ELISA, Poly(Glu, Tyr)4:1, PY99 antibody). As to conditions: ATP 4 μM, 1 hour at 37° C. The assay is classed as biochemical. As for the experimental part: Poly(Glu, Tyr)4:1 was diluted into 100 μg/ml by PBS without potassium. Enzyme label plate was coated with 37 μl/well at 37° C. overnight,
The liquid in the wells was removed. The plate was rinsed by T-PBS for 5 minutes, and dried at 37° C. after repeated 3 times.
The testing sample was diluted to the concentration concerned by reaction buffer solution, and added into the wells of the coated enzyme label plate. The concentration diluted should realize 1.0000 μg/ml, 0.1250 μg/ml, 0.0156 μg/ml, 0.00195 μg/ml and 0.00024 μg/ml in the 100 μl reaction.
Adding in ATP solution (4 μM of final concentration) diluted by reaction buffer solution,
Finally, the tyrosine kinase diluted by reaction buffer solution was added, and forming the reaction with 100 μl total volume.
Meanwhile, negative control wells and enzyme-free control wells were prepared. The reaction was kept in the dark wet box for 1 hour at 37° C. The plate was rinsed by T-PBS for three times after the reaction ended, and blocked by 1% BSA […] for 30 min, and then, PY99 antibody (1:1000 diluted by 0.05% PBST with 1% BSA) was added in 100 μl/well. After incubated at 37° C. for 30 minutes, the plate was rinsed by T-PBS for three times, and the goat anti-mouse IgG marked with HRP (1 mg/ml 1:1000 diluted by 0.05% PBST with 1% BSA) was then added in 100 μl/well. After incubated at 37° C. for 30 minutes, the plate was rinsed by T-PBS for three times.
Colorimetric solution OPD was added in 100 μl/well for 20 minutes' reaction in the dark side at the room temperature. Colorimetric substrate solution OPD was the solution of 0.1 mol/L citric acid-disodium hydrogen phosphate buffer (pH 5.0) with 20 mmol/L OPD and 12 mmol/L H2O2 (freshly prepared when using).
50 μl of 2M H2SO4 (2 mol/L sulfuric acid containing 0.1 mol/L sodium sulfate) was added in to terminate the reaction, and the A492 value was read with adjustable wavelength micro late enzyme-labeling instrument VERSAmax.
The inhibition rate of samples is calculated by the following formula: […]
Background: In an ELISA, binding on a coated surface is turned into a signal by an enzyme label.
In general, pIC50 refers to the IC50 on a negative log10 scale, so that one unit is a factor of ten. For the compound `COc1cc2ncnc(Nc3cc(Cl)ccc3F)c2cc1OCCCN1CCC2(CC1)CC(=O)N(C)C2` [Example 24, 4-(5′-chloro-2′-fluorophenylamino)-6-[3-(2-methyl-2,8-diazaspiro[4.5]decane-3-ketone-8-yl)-propoxy]-7-methoxyquinazoline], the pIC50 is 7.00 to 8.00.

Take `COc1cc2ncnc(Nc3ccc(F)c(Cl)c3)c2cc1OCCN1CC[C@H]2OCC[C@H]21` (relative stereo) [Example 54]: the pIC50 is below 6.00.

Consider `COc1cc2ncnc(Nc3cccc(Cl)c3F)c2cc1OCCCN1CCC2(CC1)CC(=O)N(C)C2` [Example 31, 4-(3′-chloro-2′-fluorophenylamino)-6-[3-(2-methyl-2,8-diazaspiro[4.5]decane-3-ketone-8-yl)-propoxy]-7-methoxyquinazoline], for which the pIC50 was 7.00 to 8.00.

In the case of `COc1cc2ncnc(Nc3ccc(F)c(Cl)c3)c2cc1OCCCN1CCC2(CCN(C)C2=O)C1` (centres unmarked) [Example 81, 4-(3′-chloro-4′-fluorophenylamino)-6-[3-(2-methyl-2,7-diazaspiro[4.4]-nonane-1-ketone-7-yl)-propoxy]-7-methoxyquinazoline], the pIC50 was 7.00 to 8.00.

The compound `C#Cc1cccc(Nc2ncnc3cc(OC)c(OCCCN4CCC5(COC5)C4)cc23)c1` [Example 75, 4-(3′-ethynylphenylamino)-6-[3-(2-oxa-6-azaspiro[3.4]octane-6-yl)-propoxy]-7-methoxyquinazoline] showed a pIC50 of 7.00 to 8.00.

In the case of `COc1cc2ncnc(Nc3ccc(F)c(Cl)c3)c2cc1OCCCN1CC2CCC(C1)O2` [Example 93, 4-(3′-chloro-4′-fluorophenylamino)-6-[3-(8-oxa-3-aza-azabicyclo[3.2.1]octane-3-yl)-propoxy]-7-methoxyquinazoline], the pIC50 was 6.00 to 7.00.

For the compound `C#Cc1cccc(Nc2ncnc3cc(OC)c(OCCCN4CC5(CCOCC5)C4)cc23)c1` [Example 39, 4-(3′-ethynylphenylamino)-6-[3-(7-oxa-2-azaspiro[3.5]nonane-2-yl)-propoxy]-7-methoxyquinazoline], the pIC50 was 7.00 to 8.00.

For `COc1cc2ncnc(Nc3ccc(F)c(Cl)c3)c2cc1OCCCN1CCC2(CCNC2=O)CC1` [Example 82, 4-(3′-chloro-4′-fluorophenylamino)-6-[3-(2,8-diazaspiro[4.5]decane-1-ketone-8-yl)-propoxy]-7-methoxyquinazoline], the pIC50 is 7.00 to 8.00.

As for `COc1cc2ncnc(Nc3ccc(F)c(Cl)c3)c2cc1OCCCN1CC2(CNC(=O)O2)C1` [Example 90, 4-(3′-chloro-4′-fluorophenylamino)-6-[3-(5-oxa-2,7-diazaspiro[3.4]octane-6-ketone-2-yl)-propoxy]-7-methoxyquinazoline], the pIC50 was 8.00 to 10.00.

Compound `COc1cc2ncnc(Nc3cccc(Cl)c3F)c2cc1OCCCN1CCC2(CCN(C)C2=O)C1` (centres unmarked) [Example 30, 4-(3′-chloro-2′-fluorophenylamino)-6-[3-(2-methyl-2,7-diazaspiro[4.4]nonane-1-ketone-7-yl)-propoxy]-7-methoxyquinazoline] had a pIC50 of 7.00 to 8.00.

For `COc1cc2ncnc(Nc3ccc(F)c(Cl)c3)c2cc1OCCN1CC2(COC2)C1` [Example 62, 4-(3′-chloro-4′-fluorophenylamino)-6-[2-(2-oxa-6-azaspiro[3.3]heptane-6-yl)-oxethyl]-7-methoxyquinazoline], the pIC50 was 6.00 to 7.00.

`COc1cc2ncnc(Nc3ccc(F)c(Cl)c3)c2cc1OCCN1CCC2(CCNC2=O)C1` (centres unmarked) [Example 55, 4-(3′-chloro-4′-fluorophenylamino)-6-[2-(2,7-diazaspiro[4.4]-nonane-1-ketone-7-yl)-oxethyl]-7-methoxyquinazoline] gave a pIC50 of 6.00 to 7.00.

Regarding `COc1cc2ncnc(Nc3ccc(F)c(Cl)c3)c2cc1OCCCN1CCC2(C1)CN(C)C(=O)O2` (centres unmarked) [Example 89, 4-(3′-chloro-4′-fluorophenylamino)-6-[3-[3-methyl-1-oxa-3,7-diazaspiro[4.4]nonane-2-ketone-7-yl)-propoxy]-7-methoxyquinazoline], the pIC50 was 7.00 to 8.00.

In turn, `C#Cc1cccc(Nc2ncnc3cc(OC)c(OCCCN4CCC5(CC4)CC(=O)N(C)C5)cc23)c1` [Example 73, 4-(3′-ethynylphenylamino)-6-[3-(2-methyl-2,8-diazaspiro[4.5]decane-3-ketone-8-yl)-propoxy]-7-methoxyquinazoline] gave a pIC50 of 7.00 to 8.00.

`C#Cc1cccc(Nc2ncnc3cc(OC)c(OCCCN4CCC5(CCN(C)C5)C4)cc23)c1` (centres unmarked) [Example 68, 4-(3′-ethynylphenylamino)-6-[3-(7-methyl-2,7-diazaspiro[4.4]nonyl)-propoxy]-7-methoxyquinazoline] showed a pIC50 of 7.00 to 8.00.

For the compound `C#Cc1cccc(Nc2ncnc3cc(OC)c(OCCCN4CCC5(CCNC5=O)C4)cc23)c1` (centres unmarked) [Example 70, 4-(3′-ethynylphenylamino)-6-[3-(2,7-diazaspiro[4.4]-nonane-1-ketone-7-yl)-propoxy]-7-methoxyquinazoline], the pIC50 is 7.00 to 8.00.

`C#Cc1cccc(Nc2ncnc3cc(OC)c(OCCCN4CCC5(CCN(C(C)=O)C5)C4)cc23)c1` (centres unmarked) [Example 51, 4-(3′-ethynylphenylamino)-6-[3-(7-acetyl-2,7-diazaspiro[4.4]-nonane-2-yl)-propoxy]-7-methoxyquinazoline] gave a pIC50 of 8.00 to 10.00.

Compound `COc1cc2ncnc(Nc3ccc(F)c(Cl)c3)c2cc1OCCCN1CC2(C1)CN(C)C(=O)O2` [Example 91, 4-(3′-chloro-4′-fluorophenylamino)-6-[3-(7-methyl-5-oxa-2,7-diazaspiro[3.4]octane-6-ketone-2-yl)-propoxy]-7-methoxyquinazoline] showed a pIC50 of 7.00 to 8.00.

For the compound `COc1cc2ncnc(Nc3ccc(F)c(Cl)c3)c2cc1OCCCN1CCC2(CCNC2=O)C1` (centres unmarked) [Example 80, 4-(3′-chloro-4′-fluorophenylamino)-6-[3-(2,7-diazaspiro[4.4]-nonane-1-ketone-7-yl)-propoxy]-7-methoxyquinazoline], the pIC50 was 8.00 to 10.00.

Regarding `COc1cc2ncnc(Nc3ccc(F)c(Cl)c3)c2cc1OCCN1CC2(C1)CN(C)C(=O)O2` [Example 61, 4-(3′-chloro-4′-fluorophenylamino)-6-[2-(7-methyl-5-oxa-2,7-diazaspiro[3.4]octane-6-ketone-2-yl)-oxethyl]-7-methoxyquinazoline], the pIC50 is 7.00 to 8.00.

The compound `C#Cc1cccc(Nc2ncnc3cc(OC)c(OCCCN4CCC5(C4)CN(C)C(=O)O5)cc23)c1` (centres unmarked) [Example 47, 4-(3′-ethynylphenylamino)-6-[3-(3-methyl-1-oxa-3,7-diazaspiro[4.4]nonane-2-ketone-7-yl)-propoxy]-7-methoxyquinazoline] showed a pIC50 of 7.00 to 8.00.

`COc1cc2ncnc(Nc3cc(Cl)ccc3F)c2cc1OCCCN1CCC2(CC1)CNC(=O)C2` [Example 21, 4-(5′-chloro-2′-fluorophenylamino)-6-[3-(2,8-diazaspiro[4.5]decyl-3-ketone-8-yl)-propoxy]-7-methoxyquinazoline] showed a pIC50 of 7.00 to 8.00.

For `COc1cc2ncnc(Nc3ccc(F)c(Cl)c3)c2cc1OCCCN1CCC2(CC1)CCN(C)C2=O` [Example 85], the pIC50 is 7.00 to 8.00.

As to `COc1cc2ncnc(Nc3cccc(Cl)c3F)c2cc1OCCCN1CCC2(CCNC2=O)C1` (centres unmarked) [Example 29, 4-(3′-chloro-2′-fluorophenylamino)-6-[3-(2,7-diazaspiro[4.4]nonane-1-ketone-7-yl)-propoxy]-7-methoxyquinazoline], the pIC50 is 7.00 to 8.00.

With `COc1cc2ncnc(Nc3ccc(F)c(Cl)c3)c2cc1OCCCN1CCC2(CCC(=O)N2)CC1` [Example 84, 4-(3′-chloro-4′-fluorophenylamino)-6-[3-(1,8-diazaspiro[4.5]decane-2-ketone-8-yl)-propoxy]-7-methoxyquinazoline], the pIC50 is 7.00 to 8.00.

In turn, `COc1cc2ncnc(Nc3ccc(F)c(Cl)c3)c2cc1OCCN1CC2(CNC(=O)O2)C1` [Example 60, 4-(3′-chloro-4′-fluorophenylamino)-6-[2-(5-oxa-2,7-diazaspiro[3.4]octane-6-ketone-2-yl)-oxethyl]-7-methoxyquinazoline] showed a pIC50 of 6.00 to 7.00.

`COc1cc2ncnc(Nc3ccc(F)c(Cl)c3)c2cc1OCCN1CC2(CCOCC2)C1` [Example 53, 4-(3′-chloro-4′-fluorophenylamino)-6-[3-(7-oxa-2-azaspiro[3.5]nonane-2-yl)-oxethyl]-7-methoxyquinazoline] showed a pIC50 of 7.00 to 8.00.

`COc1cc2ncnc(Nc3ccc(F)c(Cl)c3)c2cc1OCCN1CCC2(C1)CN(C)C(=O)O2` (centres unmarked) [Example 59, 4-(3′-chloro-4′-fluorophenylamino)-6-[2-(3-methyl-1-oxa-3,7-diazaspiro[4.4]nonane-2-ketone-7-yl)-oxethyl]-7-methoxyquinazoline] showed a pIC50 of 7.00 to 8.00.

`COc1cc2ncnc(Nc3cccc(Cl)c3F)c2cc1OCCCN1CC2(CNC(=O)C2)C1` [Example 33] showed a pIC50 of 7.00 to 8.00.
